Patent US20150252026A1, “4-(INDOLYL OR BENZIMIDAZOLYL)AMINO-2-(2-(INDOL-3-YL)ETHYL)AMINOPYRIMIDINES USEFUL FOR THE TREATMENT OF CANCER” (NOVIGA RESEARCH AB, priority 2012, published 2015)

Experiments:
[1] = tested on: colchicine site on tubulin (porcine brain tubulin); test: Colchicine displacement assay, fluorometric detection; assay type: binding; conditions: compound 20 μM, colchicine 2 μM, porcine brain tubulin 2 μM, 2 h; control = colchicine bound to tubulin
Protocol: To study whether the compounds bind to the colchicine site on tubulin, a colchicine displacement assay using fluorometric detection was performed as previously described (Bhattacharyya B. et al.; Proc Natl Acad Sci USA 1974, 71:2627-31; Risinger A L. et al.; J Pharmacol Exp Ther 2011; 336:652-60). Porcine brain tubulin at 2 μM (Cytoskeleton) in a buffer consisting of 80 mM PIPES, 2 mM MgCl2, 0.5 mM EGTA at pH 7.0 with addition of 1 mM GTP, was incubated alone, with 2 μM colchicine or with 2 μM colchicine in the presence of test compounds or reference compound combretastatin A4 at 20 μM for 2 h in a black half-area 96-well plate (Corning Inc, Corning, N.Y., USA). Thereafter, the fluorescence was measured using a FLUOStar Optima (BMG Labtech) at an excitation of 380 nm and emission of 440 nm. The results are presented as percent of control i.e. colchicine bound to tubulin.

[2] = tested on: acute lymphoblastic leukemia cell line CCRF-CEM; test: Fluorometric Microculture Cytotoxicity Assay (FMCA) in CCRF-CEM cells; assay type: cell-based; conditions: Homo sapiens, FMCA after 72 h
Text: (§1) The Fluorometric Microculture Cytotoxicity Assay, FMCA (Larsson, R., et al.; Anticancer Res, 1989, 9, 1111-1119), is a three day non-clonogenic microplate-based cell viability assay used for measurement of the cytotoxic and/or cytostatic effect of compounds in vitro (Lindhagen, E. et al.; Nat. Protoc., 2008, 3, 1364-1369). FMCA represents a valuable method to measure cytotoxicity in a number of cell types, both cell lines and primary cells from patients (Larsson, R., et al.; Int. J. Cancer, 1992, 50, 177-185; Fridborg, H., et al.; Eur. J. Cancer, 1999. 35, 424-432; Dhar, S., et al.; Br. J. Cancer, 1996, 74, 888-896).
(§2) FMCA is based on the principle that fluorescein diacetate (FDA) is converted to the fluorescent probe fluorescein by esterases […]. For experiments, 96-well microplates are prepared with compounds and stored at −20° C. or −70° C. until use. Cells are then seeded into the drug-prepared plates and placed in an incubator for 72 h. On the last day of incubation, the plates are washed and a buffer containing FDA is added and incubated with the cells for 45 minutes. Finally the fluorescence per well is measured in a fluorometer and a Survival Index % (SI) for each compound-treated well is calculated with the equation: Compound-treated cells minus blank divided by control cells minus blank. A high SI-value indicates a large percentage of living cells and vice versa.
For experiments with compounds of the invention, 96-well plates were prepared as follows:
Compounds were dissolved in DMSO to 10 mM and stored at −20° C. The test compounds were thawed, protected from light, mixed, and 3 μl stock solution was added to test tubes containing 297 μl culture medium RPMI-1640, to give the concentration 100 μM. Then, compounds were serially diluted to concentrations ten times higher than the desired test concentrations. Finally, 20 μl of each compound solution was added in duplicates to wells in two V-bottomed 96-well plates. The plates were stored at −20° C. until use.
On the day of cell seeding, 180 μl of cell suspension was added to each well in the two assay plates. The final concentrations of compounds tested were 10 μM, 1 μM, 0.1 μM and 0.01 μM. The experiment was performed twice.
In subsequent experiments, compounds were tested, along with a number of approved cancer drugs (dasatinib and pazopanib) as described above. The acute lymphoblastic leukemia cell line CCRF-CEM was used throughout. In the assay plates, medium was added to eight empty wells (blank wells) and wells filled with cell suspension served as control wells. SI-values were then calculated for each compound-treated well as described above. All experiments were conducted twice and a new batch of plates was prepared for each experiment.
(§3) To obtain EC50-values, plates were prepared with compounds serially diluted in culture media to suitable concentration ranges for each compound. Thereafter cells were added at a density of 10 000 cells per well and FMCA was performed after 72 h. Data analysis was performed using GraphPadPrism software, where SI values for each concentration were plotted on a log scale and processed with non-linear regression and a standard sigmoidal dose-response model.

[3] = tested on: A2780 (ovarian cancer); test: FMCA cell viability in ovarian cancer cell line A2780; assay type: cell-based; conditions: Homo sapiens; A2780 ovarian cancer cells
Text: as §1, §2, §3
(§4) The compounds of the invention were also tested on further cancer cell lines related to ovarian cancer (A2780; see e.g. Hamilton, T. et al.; Semin. Oncol., 1984, 11, 285-298) and multidrug-resistant ovarian cancer (A2780/Adr). The known microtubule interfering agents vincristine and paclitaxel were included as references in the resistant and non-resistant ovarian cancer cell lines.

[4] = tested on: A2780/Adr (multidrug-resistant ovarian cancer); test: FMCA cell viability in multidrug-resistant ovarian cancer cell line A2780/Adr; assay type: cell-based; conditions: A2780/Adr multidrug-resistant ovarian cancer cells
Text: as §1, §2, §3, §4

[5] = tested on: bovine tubulin protein; test: Tubulin polymerization assay kit (Cytoskeleton Inc), fluorescence; assay type: biochemical; conditions: for inhibitory effects on tubulin polymerization (in words): cell-free, 1, 3 and 10 μM; for IC50: cell-free, example compounds at 1, 3 and 10 μM, controls at 3 μM, 60 min, read-out: Inhibition of tubulin polymerization IC50
Protocol: Example compounds were further tested in a tubulin polymerization assay kit from Cytoskeleton Inc (Denver, Colo., USA). Polymerization is followed by fluorescence enhancement due to the incorporation of a fluorescent reporter into microtubules as polymerization occurs. Vincristine and paclitaxel at 3 μM were used as positive controls for tubulin polymerization inhibition and stabilisation, respectively. All compounds were dissolved in DMSO, which was used as solvent control. For experiments, example compounds (1, 3, and 10 μM) and control compounds (3 μM) were incubated with bovine tubulin protein in a cell-free environment and the fluorescence was then measured in a fluorometer (Fluostar Optima, BMG Labtech, Offenburg, Germany) at 360/450 nm every minute for a total of 60 mins.

Colchicine-tubulin binding Percent of control [1] | EC50 [3] | EC50 [4] | IC50 [5] | Structure (SMILES) | EC50 [2] | inhibitory effects on tubulin polymerization (in words) [5]
95% of control | 0.017 µM | 0.38 µM | 1 to 3 µM | CCOc1ccc2[nH]cc(CCNc3nccc(Nc4ccc5c(c4)nc(C)n5C)n3)c2c1 [Example 1, N^4-(1 2-dimethyl-1H-benzo[d]imidazol-5-yl)-N^2-[2-(5-ethoxy-1H-indol-3-yl)ethyl]pyrimidine-2,4-diamine] | 0.012 µM | showed inhibitory effects on tubulin polymerization
81% of control | 0.0033 µM | 0.017 µM | 1 to 3 µM | COc1ccc2[nH]cc(CCNc3nccc(Nc4cccc5c4ncn5C)n3)c2c1 [Example 2, N^2-[2-(5-methoxy-1H-indol-3-yl)ethyl]-N^4-(1-methylbenzimidazol-4-yl)pyrimidine-2,4-diamine] | 0.0097 µM | showed inhibitory effects on tubulin polymerization
 | 0.0092 µM | 0.024 µM |  | CCOc1ccc2[nH]cc(CCNc3nccc(Nc4cccc5c4ncn5C)n3)c2c1 [Example 3, N^2-[2-(5-ethoxy-1H-indol-3-yl)ethyl]-N^4-(1-methylbenzimidazol-4-yl)pyrimidine-2,4-diamine] | 0.0056 µM | 
 | 0.17 µM | 0.45 µM |  | CCOc1ccc2[nH]cc(CCNc3nc(C)cc(Nc4ccc5cc(C)[nH]c5c4)n3)c2c1 [Example 6] | 0.069 µM | 
 | 0.00026 µM | 0.81 µM |  | CC(=O)O[C@H]1C(=O)[C@@]2(C)[C@H]([C@H](OC(=O)c3ccccc3)[C@]3(O)C[C@H](OC(=O)[C@H](O)[C@@H](NC(=O)c4ccccc4)c4ccccc4)C(C)=C1C3(C)C)[C@]1(OC(C)=O)CO[C@@H]1C[C@@H]2O [Paclitaxel, paclitaxel, reference compound] |  | 

The next lines start with the compound.

Structure (SMILES) | Colchicine-tubulin binding Percent of control [1] | EC50 [3] | EC50 [4] | IC50 [5] | EC50 [2] | inhibitory effects on tubulin polymerization (in words) [5]
COc1ccc(/C=C\c2cc(OC)c(OC)c(OC)c2)cc1O [Combretastatin A4, combretastatin A4, reference compound] | 66% of control |  |  |  |  | 
CCOc1ccc2[nH]cc(CCNc3nc(C)cc(Nc4ccc5[nH]ccc5c4)n3)c2c1 [Example 4, N^2-[2-(5-ethoxy-1H-indol-3-yl)ethyl]-N^4-(1H-indol-5-yl)-6-methyl-pyrimidine-2,4-diamine] |  | 0.95 µM | 0.93 µM | > 10 µM | 0.8 µM | 
COc1ccc2[nH]cc(CCNc3nc(C)cc(Nc4ccc5cc(C)[nH]c5c4)n3)c2c1 [Example 5, N^2-[2-(5-methoxy-1H-indol-3-yl)ethyl]-6-methyl-N^4-(2-methyl-1H-indol-6-yl)pyrimidine-2,4-diamine] |  | 0.13 µM | 0.4 µM | 3 to 10 µM | 0.1 µM | showed inhibitory effects on tubulin polymerization
COc1ccc2[nH]cc(CCNc3nc(C)cc(Nc4cccc5c4ccn5C)n3)c2c1 [Example 7, N^2-[2-(5-methoxy-1H-indol-3-yl)ethyl]-6-methyl-N^4-(1-methylindol-4-yl)pyrimidine-2,4-diamine] |  | 0.012 µM | 0.053 µM |  | 0.032 µM | 
CCOc1ccc2[nH]cc(CCNc3nc(C)cc(Nc4cccc5c4ccn5C)n3)c2c1 [Example 8, N^2-[2-(5-ethoxy-1H-indol-3-yl)ethyl]-6-methyl-N^4-(1-methylindol-4-yl)pyrimidine-2,4-diamine] | 82% of control | 0.048 µM | 0.13 µM | ~3 µM | 0.11 µM | showed inhibitory effects on tubulin polymerization
Cc1nc(Nc2ncc(C(=O)Nc3c(C)cccc3Cl)s2)cc(N2CCN(CCO)CC2)n1 [Ref. 1, dasatinib, reference compound] |  |  |  |  | 9.7 µM | 
Cc1ccc(Nc2nccc(N(C)c3ccc4c(C)n(C)nc4c3)n2)cc1S(N)(=O)=O [Ref. 2, pazopanib, reference compound] |  |  |  |  | 25.9 µM | 
CC[C@]1(O)C[C@H]2CN(CCc3c([nH]c4ccccc34)[C@@](C(=O)OC)(c3cc4c(cc3OC)N(C=O)[C@H]3[C@@](O)(C(=O)OC)[C@H](OC(C)=O)[C@]5(CC)C=CCN6CC[C@]43[C@@H]65)C2)C1 [Vincristine, vincristine, reference compound] |  | 0.00022 µM | 0.21 µM | < 3 µM |  | 
